Experimental data published in PubChem BioAssay (NCI).
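A five-concentration, 48-hour dose response in 96-well plates underlies each endpoint, interpolated linearly between surrounding concentrations. GI50: concentration for 50% inhibition of growth. Definition used: TGI = concentration required for complete inhibition of growth.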

Experiments:
Test in all cases: NCI anticancer screen, dose series, 48 h
A498 renal = tested on: A498 renal
HT29 colon = tested on: HT29 colon
MALME-3M melanoma = tested on: MALME-3M melanoma
MDA-MB-435 = tested on: MDA-MB-435
MDA-N = tested on: MDA-N
NCI-H226 lung = tested on: NCI-H226 lung
PC-3 prostate = tested on: PC-3 prostate
SF-268 CNS = tested on: SF-268 CNS
SK-OV-3 ovarian = tested on: SK-OV-3 ovarian
SNB-19 CNS = tested on: SNB-19 CNS
SNB-75 CNS = tested on: SNB-75 CNS
SW-620 colon = tested on: SW-620 colon

| SMILES | TGI (A498 renal) [µM] | TGI (HT29 colon) [µM] | TGI (MALME-3M melanoma) [µM] | TGI (MDA-MB-435) [µM] | TGI (MDA-N) [µM] | TGI (NCI-H226 lung) [µM] | TGI (PC-3 prostate) [µM] | TGI (SF-268 CNS) [µM] | TGI (SK-OV-3 ovarian) [µM] | TGI (SNB-19 CNS) [µM] | TGI (SNB-75 CNS) [µM] | TGI (SW-620 colon) [µM] | GI50 (A498 renal) [µM] | GI50 (HT29 colon) [µM] | GI50 (MALME-3M melanoma) [µM] | GI50 (SF-268 CNS) [µM] | GI50 (SNB-19 CNS) [µM] | GI50 (SW-620 colon) [µM] |
| --- | --- | --- | --- | --- | --- | --- | --- | --- | --- | --- | --- | --- | --- | --- | --- | --- | --- | --- |
| CC(C)/C=C1\CCC(CN(C)C)C1=O (stereo not given) | 16.7 | 4.84 | 2.29 | 3.01 | 7.78 | 83 | 14.5 | 38.8 | 32.4 | 21.6 | 6.51 | 1.55 | – | – | – | – | – | – |
| FC(F)(F)c1ccc(C2ON=C(c3ccccc3)N2C23CC4CC(CC(C4)C2)C3)cc1 (stereo not given) | > 10 | > 10 | > 10 | > 10 | > 10 | > 10 | > 10 | > 10 | > 10 | > 10 | > 10 | > 10 | – | – | – | – | – | – |
| CC(C)OC(=O)c1ccc(NCc2cc(O)ccc2O)cc1 | > 100 | 31.5 | 5.2 | 12.9 | 13.2 | 18.9 | 3.99 | 28.4 | > 100 | > 68.7 | 18.6 | 17.7 | – | – | – | – | – | – |
| CC(=O)OI1NC(=O)c2ccccc21 | > 100 | > 100 | > 100 | > 100 | > 100 | > 100 | > 100 | > 100 | > 100 | > 100 | > 100 | > 100 | – | – | – | – | – | – |
| COc1ccc(C2c3cc4c(cc3OC(NNc3ccccc3)C2C)OCO4)cc1 (stereo not given) | 76.9 | 51.7 | 52.9 | > 100 | > 100 | > 100 | > 100 | > 100 | > 100 | > 100 | > 100 | > 100 | – | – | – | – | – | – |
| CCOC1OC(CO)C(O)CC1n1ccc(=O)[nH]c1=O (stereo not given) | > 100 | > 100 | > 100 | > 100 | > 100 | > 100 | > 100 | > 100 | – | > 100 | > 100 | > 100 | – | – | – | – | – | – |
| CC1(C)OP(=O)(c2ccccc2)C=C1Sc1ccc([N+](=O)[O-])cc1[N+](=O)[O-] (stereo not given) | > 100 | > 100 | > 100 | > 100 | > 100 | > 100 | > 100 | > 100 | > 100 | > 100 | > 100 | > 100 | – | – | – | – | – | – |
| Cc1cccc(C2ON=C(c3ccccc3)N2C23CC4CC(CC(C4)C2)C3)c1 (stereo not given) | > 10 | > 10 | > 10 | > 10 | > 10 | > 10 | > 10 | > 10 | > 10 | > 10 | > 10 | > 10 | – | – | – | – | – | – |
| CCS(=O)C(=O)N(O)c1ccc(Cl)cc1 (stereo not given) | > 100 | – | – | 30 | 41.4 | > 100 | > 100 | 55.4 | > 100 | > 100 | > 100 | 46 | – | – | – | – | – | – |
| O[C@]12C=C(c3nccc4c3[nH]c3ccccc34)[C@@H]3CCN(CCCC/C=C\CC1)C[C@@]31CC3/C=C\CCCCN3[C@H]12 (stereo not given in full) | 2.83 | 1.36 | 1.71 | 1.53 | 1.31 | 5.2 | 12 | 8.59 | 0.743 | 16.2 | 2.88 | 4.65 | – | – | – | – | – | – |
| CCOC(=O)C(NC(=O)OCc1ccccc1)C(=O)O (stereo not given) | > 100 | > 100 | > 100 | > 100 | > 100 | > 100 | > 100 | > 100 | – | > 100 | > 100 | > 100 | – | – | – | – | – | – |
| Clc1ccc(Cl)c(N=Nc2cc3c4c(c2)CCN4CCC3)c1 | > 10 | > 10 | > 10 | > 10 | > 10 | > 10 | > 10 | > 10 | > 10 | > 10 | > 10 | > 10 | – | – | – | – | – | – |
| CCN(CC)CCCNc1c2c(Cl)cc(Cl)cc2nc2nc(=O)[nH]c(C)c12 | > 100 | 36.4 | > 100 | 49.2 | 37.7 | > 100 | > 100 | 52.5 | 58 | 44.3 | – | 37.9 | – | – | – | – | – | – |
| CC(=O)CCCCn1c(=O)c2c(nc(Br)n2C)n(C)c1=O | > 100 | > 100 | > 100 | > 100 | > 100 | > 100 | > 100 | > 100 | > 100 | > 100 | > 100 | > 100 | – | – | – | – | – | – |
| COC1(CC[C@@H](C)COC2OC(CO)C(O)C(O)C2O)O[C@H]2C[C@H]3[C@@H]4CC=C5C[C@@H](OC6OC(CO)C(OC7OC(C)C(O)C(O)C7O)C(O)C6OC6OC(C)C(O)C(O)C6O)CC[C@]5(C)[C@H]4CC[C@]3(C)[C@H]2[C@@H]1C (stereo not given in full) | 9.76 | 4.3 | 5.09 | 4.18 | 7.43 | 15.3 | 9.58 | 6.76 | 3.09 | 6.54 | 3.37 | 2.21 | 3.86 | 1.89 | 1.96 | 2.38 | 2.46 | 0.795 |
| O=C1N/C(=N\N=C\c2ccccc2)C(c2ccccc2)O1 (stereo not given) | > 100 | > 100 | > 100 | > 100 | > 100 | > 100 | > 100 | > 100 | > 100 | > 100 | 0.0124 | > 100 | – | – | – | – | – | – |
| O=C1Oc2ccccc2C1C/C(=N\Nc1ccccc1)c1ccccc1O (stereo not given) | > 100 | 78.5 | > 100 | 76.2 | > 100 | > 100 | > 100 | > 100 | > 100 | > 100 | > 100 | > 100 | – | – | – | – | – | – |
